Results from patent publication US7671238B2, “Arylamino-arylpropanolamine derivatives and methods of their use” (Wyeth LLC, priority 2006, dated 2010).
Counter-ions that a name gives are not always drawn.

Target: T1, hNET (Homo sapiens, UniProt P23975)
T1 construct: expressed in transfected cells; host or cells: MDCK-Net6 (MDCK cells stably transfected with hNET)
Assay: Norepinephrine (NE) uptake assay in MDCK-Net6 cells
Type: cell-based
Conditions: 1 μM test compound; MDCK-Net6 cells stably transfected with human hNET; [3H]NE uptake
Method: Cells were plated at 300,000 T75 flask and cells were split twice weekly. […] Cells were plated at 250,000 cells/T75 flask and split twice weekly.
On day 1, cells were plated at 3,000 cells/well in growth medium and maintained in a cell incubator (37° C., 5% CO2). On day 2, growth medium was replaced with […] of assay buffer (25 mM HEPES; 120 mM NaCl; 5 mM KCl; 2.5 mM CaCl2; 1.2 mM MgSO4; 2 mg/ml glucose (pH 7.4, 37° C.)) containing 0.2 mg/ml ascorbic acid and […]. Plates containing cells with […] of assay buffer were equilibrated for 10 minutes at 37° C. prior to addition of compounds. A stock solution of desipramine was prepared in DMSO (10 mM) and delivered to triplicate wells containing cells for a final test concentration of 1 μM. Data from these wells were used to define non-specific NE uptake (minimum NE uptake). Test compounds were prepared in DMSO (10 mM) and diluted in assay buffer according to test range (1 to 10,000 nM). Twenty-five microliters of assay buffer (maximum NE uptake) or test compound were added directly to triplicate wells containing cells in 200 μl of assay buffer. The cells in assay buffer with test compounds were incubated for 20 minutes at 37° C. To initiate the NE uptake, [^3H]NE diluted in assay buffer (120 nM final assay concentration) was delivered in 25 μl aliquots to each well and the plates were incubated for 5 minutes (37° C.). The reaction was terminated by decanting the supernatant from the plate. The plates containing cells were washed twice with 200 μl assay buffer (37° C.) to remove free radioligand. The plates were then inverted, left to dry for 2 minutes, then reinverted and air-dried for an additional 10 minutes. The cells were lysed in 25 μl of 0.25 N NaOH solution (4° C.), placed on a shake table and vigorously shaken for 5 minutes. After cell lysis, 75 μl of scintillation cocktail was added to each well and the plates were sealed with film tape. The plates were returned to the shake table and vigorously shaken for a minimum of 10 minutes to ensure adequate partitioning of organic and aqueous solutions. The plates were counted in a Wallac Microbeta counter (PerkinElmer) to collect the raw cpm data.
For each experiment, a data stream of cpm values collected from the Wallac Microbeta counter was downloaded to a Microsoft Excel statistical application program. Calculations of EC50 values were made using the transformed-both-sides logistic dose response program written by Wyeth Biometrics Department.

T1 sequence (P23975 whole entry): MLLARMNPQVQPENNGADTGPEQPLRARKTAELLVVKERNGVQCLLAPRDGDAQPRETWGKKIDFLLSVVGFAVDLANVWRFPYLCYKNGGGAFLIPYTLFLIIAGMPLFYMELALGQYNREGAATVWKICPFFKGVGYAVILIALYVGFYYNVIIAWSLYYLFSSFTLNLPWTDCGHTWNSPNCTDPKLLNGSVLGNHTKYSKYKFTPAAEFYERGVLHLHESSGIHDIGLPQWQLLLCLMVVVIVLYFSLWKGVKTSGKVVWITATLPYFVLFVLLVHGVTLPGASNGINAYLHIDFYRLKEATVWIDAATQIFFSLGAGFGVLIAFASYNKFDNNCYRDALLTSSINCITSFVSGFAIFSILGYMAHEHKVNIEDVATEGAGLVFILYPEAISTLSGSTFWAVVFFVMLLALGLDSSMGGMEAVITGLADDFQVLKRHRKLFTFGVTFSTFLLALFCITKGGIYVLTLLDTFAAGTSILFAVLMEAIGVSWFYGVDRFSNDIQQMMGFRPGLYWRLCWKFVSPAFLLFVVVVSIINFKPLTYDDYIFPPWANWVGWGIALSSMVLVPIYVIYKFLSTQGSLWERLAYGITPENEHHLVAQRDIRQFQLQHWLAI

| Compound | inhibition at 1 µM [%] |
| --- | --- |
| Cc1cccc(N(C)[C@@H](c2ccccc2)[C@H](O)CN)c1 (racemic) [Example 2, (1RS,2SR)-3-amino-1-[methyl(3-methylphenyl)amino]-1-phenylpropan-2-ol hydrochloride] | 92 |
| CN(c1ccccc1Cl)[C@@H](c1ccccc1)[C@H](O)CN (racemic) [Example 3, (1RS,2SR)-3-amino-1-[(2-chlorophenyl)(methyl)amino]-1-phenylpropan-2-ol hydrochloride] | 45 |
| COc1cccc(N(C)[C@@H](c2ccccc2)[C@H](O)CN)c1 (racemic) [Example 4, (1RS,2SR)-3-amino-1-[(3-methoxyphenyl)(methyl)amino]-1-phenylpropan-2-ol hydrochloride] | 86 |
| COc1ccc([C@@H]([C@H](O)CN)N(C)c2ccc(Cl)cc2)cc1 (racemic) [Example 6, (1RS,2SR)-3-amino-1-[(4-chlorophenyl)(methyl)amino]-1-(4-methoxyphenyl)propan-2-ol hydrochloride] | 92 |
| CNC[C@@H](O)[C@H](c1cccc(F)c1)N(C)c1ccc(Cl)cc1 (racemic) [Example 23, (1RS,2SR)-1-[(4-chlorophenyl)(methyl)amino]-1-(3-fluorophenyl)-3-(methylamino)propan-2-ol hydrochloride] | 99 |
| CNC[C@@H](O)[C@H](c1ccc(OC)cc1)N(C)c1cccc(F)c1 (racemic) [Example 24, (1RS,2SR)-1-[(3-fluorophenyl)(methyl)amino]-1-(4-methoxyphenyl)-3-(methylamino)propan-2-ol hydrochloride] | 92 |
| CNC[C@@H](O)[C@H](c1ccc(OC)cc1)N(C)c1ccc(Cl)cc1 (racemic) [Example 25, (1RS,2SR)-1-[(4-chlorophenyl)(methyl)amino]-1-(4-methoxyphenyl)-3-(methylamino)propan-2-ol hydrochloride] | 97 |
| CNC[C@@H](O)[C@H](c1ccc(OC)cc1)N(C)c1ccc(OC)cc1 (racemic) [Example 26, (1RS,2SR)-1-(4-methoxyphenyl)-1-[(4-methoxyphenyl)(methyl)amino]-3-(methylamino)propan-2-ol hydrochloride] | 75 |
| CCNC[C@@H](O)[C@H](c1ccccc1)N(C)c1ccc(C)cc1 (racemic) [Example 28, (1RS,2SR)-3-(ethylamino)-1-[methyl(4-methylphenyl)amino]-1-phenylpropan-2-ol hydrochloride] | 71 |
| CCNC[C@@H](O)[C@H](c1ccc(OC)cc1)N(C)c1ccc(Cl)cc1 (racemic) [Example 29, (1RS,2SR)-1-[(4-chlorophenyl)(methyl)amino]-3-(ethylamino)-1-(4-methoxyphenyl)propan-2-ol hydrochloride] | 95 |
| CCNC[C@@H](O)[C@H](c1cccc(Cl)c1)N(C)c1ccccc1 (racemic) [Example 30, (1RS,2SR)-1-(3-chlorophenyl)-3-(ethylamino)-1-[methyl(phenyl)amino]propan-2-ol hydrochloride] | 56 |
| CCNC[C@@H](O)[C@H](c1ccc(Cl)cc1)N(C)c1ccccc1 (racemic) [Example 31, (1RS,2SR)-1-(4-chlorophenyl)-3-(ethylamino)-1-[methyl(phenyl)amino]propan-2-ol hydrochloride] | 88 |
| Cc1ccc(N(C)[C@@H](c2ccccc2)[C@H](O)CN(C)C)cc1 (racemic) [Example 32, (1RS,2SR)-3-(dimethylamino)-1-[methyl (4-methylphenyl)amino]-1-phenylpropan-2-ol hydrochloride] | 95 |
